Assay results taken from patent US20220280461A1, “SOLID ORAL DOSAGE FORM COMPRISING NAPROXEN AND VITAMIN B12” (DSM IP ASSETS B.V., priority 2019, published 2022).

Assay: Bulk density, tapped density and Carr Index (flowability) of raw materials and granules
Experimental: The Carr Index is calculated by the formula 100×(1-BD/TD) and is used as an indication of the flowability.

Compound: COc1ccc2cc([C@H](C)C(=O)O)ccc2c1 [Naproxen Sodium, naproxen sodium]
- Description (physical characterization of powder): very lumpy
